# Assay results: PMC5775428, “Towards an experimental classification system for membrane active peptides” (Scientific Reports, 2018)
# Where two headings read alike, the source gives them in different places.
# Experiments:
# Candida albicans = conditions: Candida albicans; for Minimum inhibitory concentration, Average: average of triplicates
# Description: (§1) Antimicrobial activity was tested against three categories of human and plant pathogenic microorganisms: Gram-positive (Bacillus subtilis, Bacillus cereus, Staphylococcus aureus), Gram-negative (Escherichia coli, Pseudomonas aeruginosa, Erwinia carotovora, Pseudomonas syringae pv. tabaci, Xanthomonas campestris pv. citri) and yeasts (Candida albicans, Cryptococcus neoformans), as previously reported. […] The full list of peptide MICs was published in an accompanying paper, and is available in the current publication as supplementary dataset (Supplementary dataset 01).
# (§2) The determination of the minimum inhibitory concentration (MIC) of peptides was performed as described in “Encrypted Antimicrobial Peptides from Plant Proteins”[7]. Briefly, MICs were determined following protocols M7-A10 and M27-A3 from Clinical & Laboratory Standards Institute (CLSI) for bacteria and yeasts, respectively. Different concentrations of IAPs (0.5 to 256 μM) were tested against several microorganisms in a final volume of 100 µL. Three biological repetitions, with 2 technical replicates each, were performed for each test, on polystyrene flat-bottom 96 wells microplates. The minimum inhibitory concentration (MIC) was defined as the concentration at which no cells were detected when visualized by optical microscopy. Please refer to the literature[7] for further details of the microbiological assays.
# Escherichia coli = conditions: Escherichia coli; for Minimum inhibitory concentration, Average: average of triplicates
# Description: as §1, §2
# Pseudomonas aeruginosa = conditions: Pseudomonas aeruginosa; for Minimum inhibitory concentration, Average: average of triplicates
# Description: as §1, §2
# Staphylococcus aureus = conditions: Staphylococcus aureus; for Minimum inhibitory concentration, Average: average of triplicates
# Description: as §1, §2
# [1] = CLSI M27-A3, 0.5 to 256 μM tested, triplicate 1, also published in ref 7
Sequence,Minimum inhibitory concentration (Candida albicans; [1]) [µM],"Minimum inhibitory concentration, Average (Candida albicans) [µM]",Minimum inhibitory concentration (Candida albicans; triplicate 2) [µM],Minimum inhibitory concentration (Candida albicans; triplicate 3) [µM],"Minimum inhibitory concentration (Escherichia coli; CLSI M7-A10, triplicate 1) [µM]","Minimum inhibitory concentration, Average (Escherichia coli) [µM]",Minimum inhibitory concentration (Escherichia coli; triplicate 2) [µM],Minimum inhibitory concentration (Escherichia coli; triplicate 3) [µM],"Minimum inhibitory concentration (Pseudomonas aeruginosa; CLSI M7-A10, triplicate 1) [µM]","Minimum inhibitory concentration, Average (Pseudomonas aeruginosa) [µM]",Minimum inhibitory concentration (Pseudomonas aeruginosa; triplicate 2) [µM],Minimum inhibitory concentration (Pseudomonas aeruginosa; triplicate 3) [µM],"Minimum inhibitory concentration (Staphylococcus aureus; CLSI M7-A10, triplicate 1) [µM]","Minimum inhibitory concentration, Average (Staphylococcus aureus) [µM]",Minimum inhibitory concentration (Staphylococcus aureus; triplicate 2) [µM],Minimum inhibitory concentration (Staphylococcus aureus; triplicate 3) [µM]
"GLKDMIKNLAKEAAVKLAGAVINKFSPQPQ [Nat-1, Nattererin-1, reference compound]",16,16.0,16,16,8,8.0,8,8,32,32.0,32,32,16,26.7,32,32
"GIGDILKNLAKAAGKAALHAVGESL [HSP-4, Hylaseptin-4, reference compound]",8,8.0,8,8,8,8.0,8,8,16,16.0,16,16,8,8.0,8,8
"GIGKFLHSAKKFGKAFVGEIMNS [Mag-2a, Magainin-2a, reference compound]",64,64.0,64,64,8,8.0,8,8,512,512.0,512,512,512,512.0,512,512
"FLSLIPHAINAVSTLVHHF [PS-2, reference compound]",32,32.0,32,32,8,8.0,8,8,512,512.0,512,512,8,8.0,8,8
